Reference: US20150307461A1, “ANTIVIRAL COMPOUNDS” (priority 2012, published 2015)

What was measured:
Assay in all cases: microbe, parasite or virus in culture
[1] = test system: Pseudotyped HCV GT1b particles (HCVpp); format: cell-based, HCV GT1b Con1 strain; details: Hepatitis C virus, 72 h, read-out: HCVpp GT-1b (EC50, μM)
[2] = test system: pseudotyped VSV G particles (VSVpp); format: cell-based; details: Vesicular stomatitis virus, 72 h, read-out: VSVpp (EC50, μM)
[3] = test system: Pseudotyped HCV GT1a particles (HCVpp); format: cell-based, HCV GT1a H77 strain; details: Hepatitis C virus, 72 h, read-out: HCVpp GT-1a (EC50, μM)

Nc1nc(Nc2cc(F)c(Br)c(Cl)c2)n[nH]1 [Compound I-5, N^3-(4-Bromo-3-chloro-5-fluoro-phenyl)-1H-[1,2,4]triazole-3,5-diamine]
EC50 [1]: 0.536 µM
EC50 [2]: 45.5 µM

CN(c1cc(Cl)c(Cl)c(Cl)c1)c1n[nH]c(N)n1 [Compound I-27, N*3*-Methyl-N*3*-(3,4,5-trichloro-phenyl)-1H-[1,2,4]triazole-3,5-diamine]
EC50 [2]: 94.4 µM
EC50 [3]: 21.1 µM

CN(c1cc(Cl)cc(Cl)c1)c1n[nH]c(N)n1 [Compound I-28, N*3*-(3,5-Dichloro-phenyl)-N*3*-methyl-1H-[1,2,4]triazole-3,5-diamine]
EC50 [2]: 100 µM
EC50 [3]: 82.8 µM

Nc1nc(N(Cc2ccccc2)c2cc(Cl)cc(Cl)c2)n[nH]1 [Compound I-29, N*3*-Benzyl-N*3*-(3,5-dichloro-phenyl)-1H-[1,2,4]triazole-3,5-diamine]
EC50 [2]: 7.5 µM
EC50 [3]: 6.49 µM

N#CCN(c1cc(Cl)cc(Cl)c1)c1n[nH]c(N)n1 [Compound I-30, [(5-Amino-1H-[1,2,4]triazol-3-yl)-(3,5-dichloro-phenyl)-amino]-acetonitrile]
EC50 [2]: 100 µM
EC50 [3]: 14.5 µM

Nc1nc(Nc2cccc(C(=O)O)c2)n[nH]1 [Compound I-31, 3-(5-Amino-1H-[1,2,4]triazol-3-ylamino)-benzoic acid]
EC50 [2]: 100 µM
EC50 [3]: 100 µM

CS(=O)(=O)Nc1cccc(Nc2n[nH]c(N)n2)c1 [Compound I-33, N-[3-(5-Amino-1H-[1,2,4]triazol-3-ylamino)-phenyl]-methanesulfonamide]
EC50 [2]: 100 µM
EC50 [3]: 100 µM

N#Cc1ccc(Nc2n[nH]c(N)n2)cc1S(=O)(=O)C(F)(F)F [Compound I-34, 4-(5-Amino-1H-[1,2,4]triazol-3-ylamino)-2-trifluoromethanesulfonyl-benzonitrile]
EC50 [2]: > 1 µM
EC50 [3]: 0.2 µM

Nc1nc(Nc2ccc(Br)c(Cl)c2)n[nH]1 [Compound I-40, N*3*-(4-Bromo-3-chloro-phenyl)-1H-[1,2,4]triazole-3,5-diamine]
EC50 [1]: 3.29 µM
EC50 [2]: 45.7 µM

Nc1nc(Nc2cc(Cl)cc(Cl)c2)n[nH]1 [Compound I-41, 3-Amino-5-(3,5-Dichloroanilino)-S-triazole]
EC50 [1]: 1.61 µM
EC50 [3]: 0.138 µM

Nc1nc(Nc2cc(Cl)c(S(=O)(=O)N3CCOCC3)c(Cl)c2)n[nH]1 [Compound I-44, N3-(3,5-dichloro-4-(morpholinosulfonyl)phenyl)-1H-1,2,4-triazole-3,5-diamine]
EC50 [1]: 0.545 µM
EC50 [2]: 100 µM

Nc1n[nH]c(Nc2cc(F)c(Br)c(C(F)(F)F)c2)n1 [Compound I-45, N^5-(4-bromo-3-fluoro-5-trifluoromethylphenyl)-1H-[1,2,4]-triazole-3,5-diamine]
EC50 [1]: 0.095 µM
EC50 [2]: 82.5 µM

Nc1n[nH]c(Nc2cc(F)c(Br)c(F)c2)n1 [Compound I-46, N^5-(4-Bromo-3,5-difluoro-phenyl)-1H-[1,2,4]triazole-3,5-diamine]
EC50 [1]: 1.18 µM
EC50 [2]: 100 µM

N#Cc1ccc(Nc2n[nH]c(N)n2)cc1 [Compound I-47, 4-(5-Amino-1H-[1,2,4]triazol-3-ylamino)-benzonitrile]
EC50 [2]: 100 µM
EC50 [3]: 19.6 µM

Nc1nc(Nc2cccc(Cl)c2Cl)n[nH]1 [Compound I-49, N^3-(2,3-Dichloro-phenyl)-1H-[1,2,4]triazole-3,5-diamine]
EC50 [2]: 100 µM
EC50 [3]: 100 µM

Nc1nc(Nc2cccc(C(F)(F)F)c2F)n[nH]1 [Compound I-53, N^3-(2-Fluoro-3-trifluoromethyl-phenyl)-1H-[1,2,4]triazole-3,5-diamine]
EC50 [2]: 100 µM
EC50 [3]: 100 µM

Nc1nc(Nc2cccc(CC(F)(F)F)c2)n[nH]1 [Compound I-55, N^3-[3-(2,2,2-Trifluoro-ethyl)-phenyl]-1H-[1,2,4]triazole-3,5-diamine]
EC50 [2]: 100 µM
EC50 [3]: 10.3 µM

Nc1nc(Nc2cccc(C(=O)c3ccccc3)c2)n[nH]1 [Compound I-58, [3-(5-Amino-1H-[1,2,4]triazol-3-ylamino)-phenyl]-phenyl-methanone]
EC50 [3]: 4.08 µM

N#CC1(c2cccc(Nc3n[nH]c(N)n3)c2)CC1 [Compound I-59, 1-[3-(5-Amino-1H-[1,2,4]triazol-3-ylamino)-phenyl]-cyclopropanecarbonitrile]
EC50 [2]: 100 µM
EC50 [3]: 1.46 µM

Nc1nc(Nc2cc(F)cc(Cl)c2)n[nH]1 [Compound I-61, N^3-(3-Chloro-5-fluoro-phenyl)-1H-[1,2,4]triazole-3,5-diamine]
EC50 [1]: 0.331 µM
EC50 [2]: > 10 µM

CNC(=O)Nc1ccc(Nc2n[nH]c(N)n2)cc1Cl [Compound I-62, 1-[4-(5-Amino-1H-[1,2,4]triazol-3-ylamino)-2-chloro-phenyl]-3-methyl-urea]
EC50 [1]: 100 µM
EC50 [2]: 100 µM

COC(=O)c1c(Cl)cc(Nc2n[nH]c(N)n2)cc1Cl [Compound I-63, 4-(5-Amino-1H-[1,2,4]triazol-3-ylamino)-2,6-dichloro-benzoic acid methyl ester]
EC50 [1]: 1.74 µM
EC50 [2]: 100 µM

Nc1nc(Nc2cc(Cl)c(C(=O)Nc3ccccc3)c(Cl)c2)n[nH]1 [Compound I-64, 4-(5-Amino-1H-[1,2,4]triazol-3-ylamino)-2,6-dichloro-N-phenyl-benzamide]
EC50 [1]: 4.09 µM
EC50 [2]: 8.6 µM

Nc1nc(Nc2cc(Cl)c(C(=O)N3CCCC3)c(Cl)c2)n[nH]1 [Compound I-65, [4-(5-Amino-1H-[1,2,4]triazol-3-ylamino)-2,6-dichloro-N-phenyl]-pyrrolidin-1-yl-methanone]
EC50 [1]: 3.67 µM
EC50 [2]: 100 µM

CS(=O)(=O)c1cccc(NC(=O)c2c(Cl)cc(Nc3n[nH]c(N)n3)cc2Cl)c1 [Compound I-66, 4-(5-Amino-1H-[1,2,4]triazol-3-ylamino)-2,6-dichloro-N-(3-methanesulfonyl-phenyl)-benzamide]
EC50 [1]: 4.99 µM
EC50 [2]: 100 µM

C=Cc1c(Cl)cc(Nc2n[nH]c(N)n2)cc1Cl [Compound I-67, N^3-(3,5-Dichloro-4-vinyl-phenyl)-1H-[1,2,4]triazole-3,5-diamine]
EC50 [1]: 0.685 µM
EC50 [2]: 100 µM

N#Cc1c(F)cc(Nc2nc(N)n[nH]2)cc1C(F)(F)F [Compound I-68, 4-(5-Amino-2H-[1,2,4]triazol-3-ylamino)-2-fluoro-6-trifluoromethyl-benzonitrile]
EC50 [1]: 0.161 µM
EC50 [2]: 43.3 µM

N#Cc1c(F)cc(Nc2nc(N)n[nH]2)cc1F [Compound I-69, 4-(5-Amino-2H-[1,2,4]triazol-3-ylamino)-2-difluoro-benzonitrile]
EC50 [1]: 0.561 µM
EC50 [2]: 100 µM

Cn1nc(N)nc1Nc1cccc(S(F)(F)(F)(F)F)c1 [Compound I-71, 1-Methyl-N*5*-(3-pentafluorosulfur-phenyl)-1H-[1,2,4]triazole-3,5-diamine]
EC50 [2]: 100 µM
EC50 [3]: 100 µM

Nc1nc(Nc2cccc(S(F)(F)(F)(F)F)c2)n(C2CCCCC2)n1 [Compound I-72, Cyclohexyl-N*5*-(3-pentafluorosulfur-phenyl)-1H-[1,2,4]triazole-3,5-diamine]
EC50 [2]: 68.3 µM
EC50 [3]: 36.1 µM

Cn1nc(N)nc1Nc1cc(F)cc(S(F)(F)(F)(F)F)c1 [Compound I-74, N*5*-(3-Fluoro-5-pentafluorosulfur-phenyl)-1-methyl-1H-[1,2,4]triazole-3,5-diamine]
EC50 [2]: 100 µM
EC50 [3]: 34.3 µM

Nc1nc(Nc2ccc(S(F)(F)(F)(F)F)cc2)n[nH]1 [Compound I-75, N*3*-(4-pentafluorosulfur-phenyl)-1H-[1,2,4]triazole-3,5-diamine]
EC50 [2]: 100 µM
EC50 [3]: 14.3 µM

Cc1ccc(Nc2n[nH]c(N)n2)cc1Cl [Compound I-76, N^3-(3-Chloro-4-methyl-phenyl)-1H-[1,2,4]triazole-3,5-diamine]
EC50 [2]: 100 µM
EC50 [3]: 0.791 µM

CN(C)C(=O)c1ccc(Nc2n[nH]c(N)n2)cc1Cl [Compound I-78, 4-(5-Amino-1H-[1,2,4]triazol-3-ylamino)-2-chloro-N,N-dimethyl-benzamide]
EC50 [2]: 100 µM
EC50 [3]: 32.1 µM

Nc1nc(Nc2ccc(Br)c(S(F)(F)(F)(F)F)c2)n[nH]1 [Compound I-81, N*3*-(4-Bromo-3-pentafluorosulfur-phenyl)-1H-[1,2,4]triazole-3,5-diamine]
EC50 [1]: 0.527 µM
EC50 [2]: 34 µM

Nc1nc(Nc2cc(Br)cc(S(F)(F)(F)(F)F)c2)n[nH]1 [Compound I-82, N*3*-(3-Bromo-5-pentafluorosulfur-phenyl)-1H-[1,2,4]triazole-3,5-diamine]
EC50 [1]: 0.918 µM
EC50 [2]: 57.5 µM

N#CCc1c(Cl)cc(Nc2n[nH]c(N)n2)cc1C(F)(F)F [Compound I-84, 2-(4-(5-amino-1H-1,2,4-triazol-3-ylamino)-2-chloro-6-(trifluoromethyl)phenyl)acetonitrile]
EC50 [1]: 0.628 µM
EC50 [2]: 42.1 µM

N#Cc1ccc(Nc2n[nH]c(N)n2)cc1S(F)(F)(F)(F)F [Compound I-85, 4-(5-Amino-1H-[1,2,4]triazol-3-ylamino)-2-pentafluorosulfur-benzonitrile]
EC50 [1]: 0.287 µM
EC50 [2]: > 10 µM

N#Cc1c(F)cc(Nc2n[nH]c(N)n2)cc1S(F)(F)(F)(F)F [Compound I-86, 4-(5-Amino-1H-[1,2,4]triazol-3-ylamino)-2-fluoro-6-pentafluorosulfur-benzonitrile]
EC50 [1]: 0.104 µM
EC50 [2]: > 10 µM

N#Cc1c(NN)cc(Nc2n[nH]c(N)n2)cc1S(F)(F)(F)(F)F [Compound I-87, 4-(5-Amino-1H-[1,2,4]triazol-3-ylamino)-2-hydrazino-6-pentafluorosulfur-benzonitrile]
EC50 [1]: 1.65 µM
EC50 [2]: > 10 µM

Nc1nc(Nc2cc(Cl)c(Cc3nnn[nH]3)c(C(F)(F)F)c2)n[nH]1 [Compound I-90, N3-(4-((1H-tetrazol-5-yl)methyl)-3-chloro-5-(trifluoromethyl)phenyl)-1H-1,2,4-triazole-3,5-diamine]
EC50 [2]: 100 µM
EC50 [3]: 24.4 µM
